Publication PMC3025922 (BMC Biology, 2010)
Values joined by “and” are separate entries in the source; they are usually repeats but may differ in a detail not shown here. Equal values may be shown once. Read-outs that look alike come from different tables or passages of the source.

What was measured:
[1] = MTT cytotoxicity assay, IMR90; format: cell-based; details: human, IMR90 normal fibroblasts
Procedure: (§3) LNCaP-S14 (10,000 cells), PC3, DU145 or IMR90 cells (5000 cells) were seeded in 96-well plates and treated with increasing concentrations of the respective SMIPs for 72 h. Cell viability was assessed using the MTT cell proliferation assay (ATCC®, Middlesex, UK) according to the manufacturer's protocol. IC50 was calculated using the BioDataFit 1.02 software http://www.changbioscience.com/stat/ec50.html.

LNCaP cells = test: Cell cycle analysis by flow cytometry, LNCaP; format: cell-based, human
Procedure: (§1) Cells were exposed to SMIPs (40 μM) for 24 h and 48 h. Cells were trypsinized, washed with PBS and suspended in 600 μL PBS. Cells were fixed by adding 1.4 mL cold absolute ethanol and kept at -20°C for at least 12 h. After washing once with PBS, the cells were resuspended in 250 μL PBS containing 2.5 μg RNAse A and incubated for 45 min at room temperature. Staining was done by adding 40 μg/mL of propidium iodine followed by incubation for 15 min at room temperature. DNA-bound fluorescence was read at 564 to 606 nm using FACSort and FACSCanto flow cytometers (BD Biosciences) at the Flow Cytometry Facility of the Sanford-Burnham Medical Research Institute. Distribution of cells in the different cell cycle phase was determined with ModFit LT 3.2.1 or FlowJo 8.6 software. Aggregates were excluded from the analysis manually using pulse shape or identified by automated modelling in ModFit LT.

LNCaP-S14 cells = test: Cell cycle distribution in LNCaP-S14 transfected with siRNAs for p27 and p21; format: cell-based, human
Procedure: as §1
LNCaP-S14 cells were seeded in 6 cm dishes or six-well-plates coated with poly-lysine the day before transfection. 10-20 nM of siRNA was transfected using DharmaFECT 3 (Thermo Scientific) according to the manufacturer's instructions. Briefly, siRNAs were dissolved in siRNA suspension buffer (Quiagen) at 20 μM, heated to 90°C for 1 min and incubated at 37°C for 1 h. siRNAs were added to the DharmaFECT 3 reagent diluted in Optimem media (1:100) and incubated for 20 min at room temperature. The mix was added to the cells for 24 h. Treatment with SMIPs (40 μM) or vehicle was carried on for another 24 h. Cells were obtained for FACS or lysed for immunoblotting analysis as described above. Untransfected cells as well as cells transfected with non-specific siRNA were used as controls. Silencer® Negative Control siRNA No.1 from Ambion (Applied Biosciences, CA, USA) was used as non-specific control siRNA. siRNA target sequences for p27 and p21 synthesized by IDT (Integrated DNA Technologies Inc, Iowa, USA) were as follows; p27 siRNA: […], and p21 siRNA: […] [56].

[2] = system: p27 protein levels in LNCaP cells; test: Immunoblot quantification of p27, LNCaP; format: cell-based, human
Procedure: (§2) Total cell lysate from cells treated with vehicle (DMSO) or compounds were obtained by incubating cells in lysis buffer (25 mM Tris-HCl pH 7.4, 150 mM NaCl, 0.5% Triton X-100, protease inhibitors) for 15 min at 4°C. The supernatant was collected by centrifugation and the amount of protein was determined with a Bio-Rad protein assay (Bio-Rad) using BSA as standard. Equal amounts of protein were subjected to SDS-PAGE (4%-20% gels, Invitrogen) and transferred to PVDF membranes. The membranes were blocked with TBST (50 mM Tris-HCl pH 7.5, 150 mM NaCl, 0.05% Tween-20) containing 5% non-fat dry milk or bovine serum albumin (BSA) for 1 h at room temperature, followed by incubation in primary antibodies 4°C overnight. Membranes were washed and incubated with secondary antibodies conjugated to HRP (Jackson ImmunoResearch Laboratories) for 1 h at room temperature. Signals were visualized using the ECL Western Blotting Substrate (Pierce Biotechnology, IL, USA) according to the manufacturer's instructions. Membranes were stripped using Restore™ Western Blot Stripping Buffer (Pierce Biotechnology). Films were scanned and quantification of the bands was performed using Image J software http://rsbweb.nih.gov/ij/.

[3] = system: p27 protein levels in DU145 cells; test: Immunoblot quantification of p27, DU145; format: cell-based, human
Procedure: as §2

[4] = system: p21 protein levels in DU145 cells; test: Immunoblot quantification of p21, DU145; format: cell-based, human
Procedure: as §2

[5] = system: p27 protein levels in IMR90 cells; test: Immunoblot quantification of p27, IMR90; format: cell-based, human
Procedure: as §2

PC3 cells = test: MTT cytotoxicity assay, PC3; details: Homo sapiens, read-out: IC50 (MTT cytotoxicity)
Procedure: as §3

CC(C)(C)c1cc2cc(NC(=O)c3cccs3)ccc2[nH]1 [SMIP001]
IC50 at 72 h ([1]; IMR90, 0.01 - 40 μM): > 20 µM | IC50 at 72 h ([1]; IMR90, 0.01 - 80 μM): 40 to 80 µM | IC50 at 96 h ([1]; IMR90, 0.01 - 80 μM, 96 h): 40 to 80 µM | Cell cycle distribution G1 (LNCaP cells): 84.5 and 83.6 | Cell cycle distribution G2 (LNCaP cells): 7.6 and 6.6 | Cell cycle distribution S (LNCaP cells): 6.6 and 8.5 | % G1 (LNCaP-S14 cells): 71.86% and 75.76% and 75.13% and 72.22% | % G2 (LNCaP-S14 cells): 21.07% and 14.54% and 18.37% and 16.74% | % S (LNCaP-S14 cells): 7.07% and 9.70% and 6.50% and 11.04% | p27 protein level (immunoblot, DMSO = 1.0) [2]: 1.5 ± 0.7 | p27 protein level (immunoblot, DMSO = 1.0) [3]: 1.1 ± 0.2 | p21 protein level (immunoblot, DMSO = 1.0) [4]: 1.1 ± 0.3 | p27 protein level (immunoblot, DMSO = 1.0) [5]: 1.0 ± 0.0 | IC50 (PC3 cells; PC-3, 72 h): ~80 µM | IC50 (PC3 cells; PC-3, 96 h): 80 µM
